Experimental data taken from US8535903B2, “Nitroreductase enzymatic substrates” (BioMerieux, S.A., priority 2009, dated 2013).

Columns and labels:
Assay in all cases: Detection of nitroreductase activity on Columbia medium with substrate
Format in all cases: cell-based
Details in all cases: 24 hours at 37° C.
[1] = test system: Escherichia coli NCTC 10 418; parameters: key to Growth: NG: no growth; 0.5: low growth; 1: moderate growth; 2: good growth; key to Col. (color of the colonies): —: no color/fluorescence
Experimental: (§1) 40 mg of substrate were dissolved in 4 ml of dimethylsulfoxide and added to 400 ml of previously autoclaved Columbia medium. The medium was distributed in Petri dishes 90 mm in diameter at the rate of 20 ml per dish. Seventeen strains of microorganisms obtained from collections and belonging to various species of bacteria and yeasts are inoculated as spots of about 10 000 colony forming units. The media are incubated for 24 hours at 37° C. and then the colonies formed are examined visually and under a UV lamp at 365 nm.

[2] = test system: Enterobacter cloacae NCTC 11 936; parameters: key to Growth: NG: no growth; 0.5: low growth; 1: moderate growth; 2: good growth; key to Col. (color of the colonies): —: no color/fluorescence
Experimental: as §1

[3] = test system: Serratia marcescens NCTC 10 211; parameters: key to Growth: NG: no growth; 0.5: low growth; 1: moderate growth; 2: good growth; key to Col. (color of the colonies): —: no color/fluorescence
Experimental: as §1

[4] = test system: Providencia rettgeri NCTC 7 475; parameters: key to Growth: NG: no growth; 0.5: low growth; 1: moderate growth; 2: good growth; key to Col. (color of the colonies): —: no color/fluorescence
Experimental: as §1

[5] = test system: Listeria monocytogenes NCTC 11 994; parameters: key to Growth: NG: no growth; 0.5: low growth; 1: moderate growth; 2: good growth; key to Col. (color of the colonies) / Fluo. (fluorescence of the colonies): —: no color/fluorescence
Experimental: as §1

[6] = test system: Enterococcus faecium NCTC 7 171; parameters: key to Growth: NG: no growth; 0.5: low growth; 1: moderate growth; 2: good growth; key to Col. (color of the colonies) / Fluo. (fluorescence of the colonies): —: no color/fluorescence
Experimental: as §1

[7] = test system: Streptococcus pyogenes NCTC 8 306; parameters: key to Growth: NG: no growth; 0.5: low growth; 1: moderate growth; 2: good growth; key to Col. (color of the colonies) / Fluo. (fluorescence of the colonies): —: no color/fluorescence
Experimental: as §1

[8] = test system: Yersinia enterocolitica NCTC 11 176; parameters: key to Growth: NG: no growth; 0.5: low growth; 1: moderate growth; 2: good growth; key to Col. (color of the colonies) / Fluo. (fluorescence of the colonies): —: no color/fluorescence
Experimental: as §1

[9] = test system: Staphylococcus epidermidis NCTC 11 047; parameters: key to Growth: NG: no growth; 0.5: low growth; 1: moderate growth; 2: good growth; key to Col. (color of the colonies) / Fluo. (fluorescence of the colonies): —: no color/fluorescence
Experimental: as §1

[10] = test system: Pseudomonas aeruginosa NCTC 10 662; parameters: key to Growth: NG: no growth; 0.5: low growth; 1: moderate growth; 2: good growth; key to Col. (color of the colonies) / Fluo. (fluorescence of the colonies): —: no color/fluorescence
Experimental: as §1

[11] = test system: Staphylococcus aureus NCTC 6 571; parameters: key to Growth: NG: no growth; 0.5: low growth; 1: moderate growth; 2: good growth; key to Col. (color of the colonies) / Fluo. (fluorescence of the colonies): —: no color/fluorescence
Experimental: as §1

[12] = test system: Bacillus subtilis NCTC 9 372; parameters: key to Growth: NG: no growth; 0.5: low growth; 1: moderate growth; 2: good growth; key to Col. (color of the colonies) / Fluo. (fluorescence of the colonies): —: no color/fluorescence
Experimental: as §1

[13] = test system: Candida glabrata NCPF 3 943; parameters: key to Growth: NG: no growth; 0.5: low growth; 1: moderate growth; 2: good growth; key to Col. (color of the colonies) / Fluo. (fluorescence of the colonies): —: no color/fluorescence
Experimental: as §1

[14] = test system: Staphylococcus aureus NCTC 11 939; parameters: key to Growth: NG: no growth; 0.5: low growth; 1: moderate growth; 2: good growth; key to Col. (color of the colonies) / Fluo. (fluorescence of the colonies): —: no color/fluorescence
Experimental: as §1

[15] = test system: Candida albicans ATCC 90 028; parameters: key to Growth: NG: no growth; 0.5: low growth; 1: moderate growth; 2: good growth; key to Col. (color of the colonies) / Fluo. (fluorescence of the colonies): —: no color/fluorescence
Experimental: as §1

[16] = test system: Enterococcus faecalis NCTC 775; parameters: key to Growth: NG: no growth; 0.5: low growth; 1: moderate growth; 2: good growth; key to Col. (color of the colonies) / Fluo. (fluorescence of the colonies): —: no color/fluorescence
Experimental: as §1

[17] = test system: Salmonella typhimurium NCTC 74; parameters: key to Growth: NG: no growth; 0.5: low growth; 1: moderate growth; 2: good growth; key to Col. (color of the colonies) / Fluo. (fluorescence of the colonies): —: no color/fluorescence
Experimental: as §1

[18] = 40 mg substrate in 400 ml Columbia medium

Structure (SMILES): O=[N+]([O-])c1ccc(C=Cc2ccncc2)cc1 [4NSP, 4,4′-Nitrostyrylpyridine]
- Growth [1, 18]: 2
- Fluo. (fluorescence of the colonies) ([1]; UV lamp at 365 nm): Yellow
- Col. (color of the colonies) ([1]; examined visually): —
- Growth [2, 18]: 2
- Fluo. (fluorescence of the colonies) ([2]; UV lamp at 365 nm): Yellow
- Col. (color of the colonies) ([2]; examined visually): —
- Growth [3, 18]: 2
- Fluo. (fluorescence of the colonies) ([3]; UV lamp at 365 nm): Yellow
- Col. (color of the colonies) ([3]; examined visually): —
- Growth [4, 18]: 2
- Fluo. (fluorescence of the colonies) ([4]; UV lamp at 365 nm): Pale yellow
- Col. (color of the colonies) ([4]; examined visually): —
- Growth [5, 18]: 1
- Fluo. (fluorescence of the colonies) ([5]; UV lamp at 365 nm): —
- Col. (color of the colonies) ([5]; examined visually): —
- Growth [6, 18]: 1
- Fluo. (fluorescence of the colonies) ([6]; UV lamp at 365 nm): —
- Col. (color of the colonies) ([6]; examined visually): —
- Growth [7, 18]: 1
- Fluo. (fluorescence of the colonies) ([7]; UV lamp at 365 nm): —
- Col. (color of the colonies) ([7]; examined visually): —
- Growth [8, 18]: 2
- Fluo. (fluorescence of the colonies) ([8]; UV lamp at 365 nm): —
- Col. (color of the colonies) ([8]; examined visually): —
- Growth [9, 18]: 0.5
- Fluo. (fluorescence of the colonies) ([9]; UV lamp at 365 nm): —
- Col. (color of the colonies) ([9]; examined visually): —
- Growth [10, 18]: 2
- Fluo. (fluorescence of the colonies) ([10]; UV lamp at 365 nm): —
- Col. (color of the colonies) ([10]; examined visually): —
- Growth [11, 18]: 1
- Fluo. (fluorescence of the colonies) ([11]; UV lamp at 365 nm): —
- Col. (color of the colonies) ([11]; examined visually): —
- Growth [12, 18]: NG
- Fluo. (fluorescence of the colonies) ([12]; UV lamp at 365 nm): —
- Col. (color of the colonies) ([12]; examined visually): —
- Growth [13, 18]: 1
- Fluo. (fluorescence of the colonies) ([13]; UV lamp at 365 nm): —
- Col. (color of the colonies) ([13]; examined visually): —
- Growth [14, 18]: 1
- Fluo. (fluorescence of the colonies) ([14]; UV lamp at 365 nm): —
- Col. (color of the colonies) ([14]; examined visually): —
- Growth [15, 18]: NG
- Fluo. (fluorescence of the colonies) ([15]; UV lamp at 365 nm): —
- Col. (color of the colonies) ([15]; examined visually): —
- Growth [16, 18]: 1
- Fluo. (fluorescence of the colonies) ([16]; UV lamp at 365 nm): —
- Col. (color of the colonies) ([16]; examined visually): —
- Growth [17, 18]: 0.5
- Fluo. (fluorescence of the colonies) ([17]; UV lamp at 365 nm): —
- Col. (color of the colonies) ([17]; examined visually): —
